Legend:
[1] = tested on: Naïve T cells-transferred colitis model; experiment: Drug efficiency evaluation in naïve T cells-transferred colitis model; format: in vivo; details: SCID mice, mean ± standard error
Method: The Drug Efficiency Evaluation in Naïve T Cells—Transferred Colitis Model
(1) Purification of CD45RB Positive Naïve T Cells and Transfer the Cells into SCID Mice
After female BALB/c mice (Charles River Japan, 8-weeks-old in use) were sacrificed by blood removal from cervical vein under inhalation anesthesia with isoflurane spleens were harvested from these mice. Spleens were washed with ice-cold PBS (phosphate buffered saline, Invitrogen) and stored in 50 mL tube containing PBS on ice. Spleens stored on ice were mashed with the upper portion of slide glasses inside a biological safety cabinet, and filtered through a cell filter (pore size 70 μm), and the filtrate was centrifuged at 500×g, room temperature for 5 minutes. After the supernatant was removed, 12 mL of RBC lysis buffer (Biolegend) was added to a cell pellet and it was resuspended and left for about 3 minutes. The supernatant was removed after centrifugation and the hemolytic process was performed by repeating same procedure once again.
The cells were purified with Mouse Naive T cell CD4^+/CD62L^+/CD44^low Colum Kit (R&D systems). The cells performed with the hemolytic process, were suspended by column buffer attached to the above Column Kit, and purified through a cell filter (pore size 70 μm) after centrifugation at 500×g, room temperature for 5 minutes. The cells were resuspended with column buffer, and antibody cocktails attached to the above Column Kit were added to this and mixed. After that, the cells were purified according to the protocol of the Column Kit.
Next, purification of CD45RB positive cells was performed by MACS (registered mark) separator (Miltenyi Biotec). The purified cells were suspended with 2 mL of PBS containing 0.5% BSA, and reacted at room temperature for 15 minutes after adding FITC (fluorescein isothiocyanate)-labeled anti-CD45RB antibody (Biolegend). After washing two times with PBS containing 0.5% BSA by centrifugation, the cells were resuspended with 2 mL of PBS containing 0.5% BSA and reacted at room temperature for 10 minutes after adding anti-FITC microbeads (Miltenyi Biotec). After washing one time with PBS containing 0.5% BSA by centrifugation, the cells were resuspended with 3 mL of PBS containing 0.5% BSA, and a fraction of CD45RB positive cells was purified according to the protocol of MACS (registered trademark) separator. In the process of elution after detached from MACS (registered trademark) separator, the cells were separated with 5 mL of PBS. The cell suspension was washed one time by centrifugation with PBS, resuspended by appropriate PBS and measured the cell number as naïve T cells suspension for transfer. Female CB17/Icr-scid/scid Jcl (SCID mice) (Charles River Japan, 8-weeks-old in use) were induced colitis by intraperitoneal administration of 500 μL (divided into 250 μL two times) of naïve T cells suspension prepared at 6×10^5 cells/mL by PBS.
(2) Measurement of Body Weight and Procedure for Administration of Drugs
Body weights were measured at day 1, 8 and 15 as day 0 when naïve T cells were transferred to mice. Mice were grouped evenly, based on body weight change at day 15. The measurement of body weight was performed two times a week after day 15. A solvent (Vehicle) and test compounds were administered twice a day from the evening of day 15. The administration solution was prepared as indicated below. Firstly, 0.5% methyl cellulose (Wako pure chemicals) of 1/10 volume of total volume was added to test compound, and a suspension was prepared by sonication. […] After that, administration solutions for test compounds were prepared by sonication while adding distilled water of 9/10 volume of total volume to these suspensions in several batches. A solution prepared in the same volume ratios of 0.5% methyl cellulose and distilled water as administration solutions for test compounds was used as vehicle. Administration solutions for vehicle or test compounds were orally administered to mice at 5 mL/kg.

[2] = tested on: blood lymphocytes; experiment: Confirmation test for reduction effects on the number of lymphocytes; format: in vivo, Male Sprague-Dawley rats; details: rat, oral; for Number of lymphocytes (% of Vehicle) After 6 hours: 6 hours after administration; for Number of lymphocytes (% of Vehicle) After 24 hours: 24 hours after administration; for Number of lymphocytes (% of Vehicle) After 48 hours: 48 hours after administration
Method: Confirmation Test for Reduction Effects on the Number of Lymphocytes
Reduction effects on the number of blood lymphocytes by test compounds were confirmed using Male Sprague-Dawley rats (Japan SLC, 7-weeks-old in use). Administration solutions for test compounds were prepared on hot-plate at 50° C. After test compounds were dissolved by DMSO (dimethyl sulfoxide, Wako Pure Chemicals) of 1/10 volume of the total volume, WellSolve (Celeste) of 1/10 volume of the total volume was added to this solution. Further, distilled water (Otsuka Pharmaceutical Factory) of 8/10 volume of the total volume was added to this solution, and the administration solutions for test compounds were prepared. A solution, prepared in the same volume ratios of DMSO. WellSolve and distilled water as the administration solution for test compounds, was used as a solvent (Vehicle). Vehicle or test compound was administered orally to rats at 1 mL/body. After 6, 24 and 48 hours from administration of vehicle or test compounds, rats were held on the board at supine position under inhalation anesthesia with isoflurane (Abbott Japan). Blood samples (200 to 250 μL) were collected from the cervical vein of this rat using 1 mL syringes with needles of 25G. The collected blood samples were transferred to a microtube treated with EDTA-2K (Japan Becton Dickinson), and stored at room temperature after gently mixing with inversion. The number of lymphocytes was measured by ADVIA (registered mark) (Bayer), which is a multi-parameter automated blood cell counter using this blood samples. The average number of lymphocytes in vehicle-treated group (vehicle group) was defined as 100%, and the average number of lymphocytes in each test compound-treated group was calculated as % of vehicle. As Comparative Example 2, 1-{5-[1-(4-chloro-3-methyl-phenyl)-propylamino]-2-methyl-benzyl}-azetidine-3-carboxylic acid (patent literature 1, Example 4) was evaluated as well.

[3] = biological target: human S1P1 (EDG-1) (Homo sapiens (Human), UniProt P21453); experiment: Confirmation test of antagonistic activity for human S1P1 receptor (35S-GTP binding, cell membranes); format: biochemical; details: inhibition of 35S-GTP binding induced by S1P1 receptor selective agonist; HEK293 membranes expressing human S1P1
Sequence of human S1P1 (EDG-1) (P21453 whole entry): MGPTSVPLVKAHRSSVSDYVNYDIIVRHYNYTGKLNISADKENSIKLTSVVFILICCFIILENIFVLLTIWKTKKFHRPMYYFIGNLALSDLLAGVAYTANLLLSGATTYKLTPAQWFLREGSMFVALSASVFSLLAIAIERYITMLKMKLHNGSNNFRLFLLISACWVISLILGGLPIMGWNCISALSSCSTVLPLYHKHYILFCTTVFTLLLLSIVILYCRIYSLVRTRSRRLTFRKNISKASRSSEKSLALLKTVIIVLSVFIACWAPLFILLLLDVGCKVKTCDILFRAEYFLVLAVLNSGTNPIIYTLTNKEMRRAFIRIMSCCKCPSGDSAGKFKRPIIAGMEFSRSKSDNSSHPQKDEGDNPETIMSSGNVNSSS
Method: Confirmation Test of Antagonistic Activity for Human S1P1 Receptor
Test compounds were tested by reduction of functional binding activity of ^35S-GTP (guanosine 5′-O-[gamma-thio] triphosphate, PerkinElmer) to G protein using cell membranes expressing human S1P1 (EDG-1). S1P1-pcDNA3.1/V5-His-Topo vector was prepared by inserting cDNA (NM_001400) encoding human S1P1 into the expression vector, pcDNA3.1/V5-His-Topo (registered trademark) (Invitrogen). Next, the above S1P1-pcDNA3.1 vector was transfected into HEK293 cells by Lipofectamine2000 (registered trademark) (Invitrogen). The transfected cells were incubated with D-MEM liquid medium each containing 10% FBS (Fetal bovine serum), 100 U/mL penicillin, 100 μg/mL streptomycin and 1 mg/mL Geneticin (registered trademark) (Invitrogen) in an incubator under the condition of 5% CO2 at 37° C. and Geneticin (registered mark)-resistant cell line stably expressing S1P1 were obtained. The obtained stably S1P1-expressing cells were incubated with D-MEM liquid medium each containing 10% FBS and 0.5 mg/mL Geneticin (registered trademark) in an incubator under the condition of 5% CO2 at 37° C. The cells grown to confluence were harvested by a buffer solution containing 50 mM Tris, 2 mM EDTA (ethylmediaminetetraacetic acid) and 125 mM sodium chloride, and centrifuged at 1880×g, 4° C. for 10 minutes. After a supernatant was removed, a cell pellet was resuspended by the same buffer solution. For making cell membranes fragile, this cell suspension was frozen at −80° C. and then thawed. The cells were centrifuged at 1880×g, 4° C. for 10 minutes, and a supernatant was removed. The cell pellet was suspended by adding the same buffer solution and a fracture solution (10 mM sodium bicarbonate and 5 mM EDTA, pH 7.5) at a ratio of 2:1. The cells were fractured by subjecting the cell suspension to ultrasonication, and a cell membrane fraction was isolated by centrifugation at 1880×g, 4° C. for 10 minutes and ultracentrifugation of the supernatant at 80000×g, 4° C. for 30 minutes. A pellet of the cell membrane fraction was suspended by the fracture solution containing protease inhibitor cocktail (Roche) and stored at −80° C. until use. A protein concentration of the cell membrane fraction was determined using BCA Protein Assay Kit (Pierce) in accordance with an attached protocol.
Inhibitory activity evaluation was performed by multi-screen (registered trademark) HTS 96-well plate (Millipore) using the cell membrane fraction stably expressing S1P1 obtained by the above operation. 25 μL of assay solution (50 mM Tris, 100 mM sodium chloride, 5 mM magnesium chloride, 1 mM EDTA, 1 mM DTT (dithiothreitol), 10 μM GDP (guanosine diphosphate) and 0.5% BSA (bovine serum albumin), pH 7.4), 25 μL of test compounds solution diluted by assay solution and 25 μL of the membrane fraction (0.2 μg protein/μL) were added to each well, and the mixture was gently shaken at room temperature: for 30 minutes. Then, 25 μL of ^35S-GTP, and 25 μL of 50 nM S1P1 receptor selective agonist (1-[4-(4-phenyl-5-trifluoromethylthiophen-2-ylmethoxy)benzyl]azetidine-3-carboxylic acid, “J. Med. Chem.”, 2004, vol. 47, pp. 6662-6665, compound 18) were added to each well, respectively, and it was reacted at room temperature for 60 minutes. After the reaction, a reaction solution of each well was suction-filtered. After suction filtration, ice-colded wash solution (50 mM Tris, 100 mM sodium chloride, […] and 1 mM EDTA, pH 7.4) was added to each well, and moreover filters were washed by suction filtration. This wash procedure was performed three times. A bottom of the plate containing the filters was dried at 60° C. After drying, 30 μL of MicroScinti-40 (PerkinElmer) was added to each well, and the radioactivity adsorbed on the filter was determined by TopCount NXT (registered trademark) (PerkinElmer) after shaking for 30 minutes at room temperature. […]

[4] = oral twice a day, 1.5 mg/kg, vehicle group = 100%

## Nc1ccc(O)c(C(=O)O)c1 [5-Aminosalicylic acid, reference compound]
[1]; oral twice a day, vehicle group = 100%
  Colon weight (%): 75.9 ± 58.3%

## CCC(Nc1ccc(C)c(CN2CC(C(=O)O)C2)c1)c1ccc(Cl)c(C)c1 (stereo not drawn) [Comparative Example 2, 1-{5-[1-(4-chloro-3-methyl-phenyl)-propylamino]-2-methyl-benzyl}-azetidine-3-carboxylic acid, reference compound]
[2]; 1 mg/kg
  Number of lymphocytes (% of Vehicle) After 6 hours: 39.9 % of Vehicle
  Number of lymphocytes (% of Vehicle) After 24 hours: 82.3 % of Vehicle
  Number of lymphocytes (% of Vehicle) After 48 hours: 109.6 % of Vehicle
[2]; 10 mg/kg
  Number of lymphocytes (% of Vehicle) After 6 hours: 16.8 % of Vehicle
  Number of lymphocytes (% of Vehicle) After 24 hours: 94.0 % of Vehicle
  Number of lymphocytes (% of Vehicle) After 48 hours: 110.3 % of Vehicle
[2]; 6 to 48 hours after administration
  time course of the number of lymphocytes in blood (in words): transient reduction of the number of lymphocytes in blood

## CCN(c1ccc(Cl)c(C(F)(F)F)c1)C1CCc2c1ccc(C)c2CN1CC(C(=O)O)C1 (stereo not drawn) [Compound 2-8, 1-{1-[(4-Chloro-3-trifluoromethylphenyl)(ethyl)amino]-5-methylindan-4-ylmethyl}azetidine-3-carboxylic acid]
[3]
  IC50: 2.9 nM
[2]; 1 mg/kg
  Number of lymphocytes (% of Vehicle) After 6 hours: 15.1 % of Vehicle
  Number of lymphocytes (% of Vehicle) After 24 hours: 34.5 % of Vehicle
  Number of lymphocytes (% of Vehicle) After 48 hours: 87.7 % of Vehicle
[2]; 10 mg/kg
  Number of lymphocytes (% of Vehicle) After 6 hours: 13.7 % of Vehicle
  Number of lymphocytes (% of Vehicle) After 24 hours: 12.3 % of Vehicle
  Number of lymphocytes (% of Vehicle) After 48 hours: 33.4 % of Vehicle

## C=Cc1ccc(C(C)N(CC)c2ccc(Cl)c(C(F)(F)F)c2)cc1CN1CC(C(=O)O)C1 (stereo not drawn) [Compound 4-1, 1-(5-{1-[(4-Chloro-3-trifluoromethylphenyl)(ethyl)amino]ethyl}-2-vinylbenzyl)-azetidine-3-carboxylic acid]
[3]
  IC50: 1.2 nM

## CCN(c1cc(C(F)(F)F)cc(C(F)(F)F)c1)C(C)c1ccc(C)c(CN2CC(C(=O)O)C2)c1 (stereo not drawn) [Compound 4-2]
[3]
  IC50: 3.1 nM

## CCN(c1ccc(Cl)c(C(F)(F)F)c1)C(C)c1ccc(CO)c(CN2CC(C(=O)O)C2)c1 (stereo not drawn) [Compound 5-1, 1-(5-{1-[(4-Chloro-3-trifluoromethylphenyl)(ethyl)amino]ethyl}-2-hydroxymethyl-benzyl)azetidine-3-carboxylic acid]
[3]
  IC50: 4.4 nM

## CCN(c1ccc(Cl)c(C(F)(F)F)c1)C(CO)c1ccc(C)c(CN2CC(C(=O)O)C2)c1 (stereo not drawn) [Compound 6-2]
[3]
  IC50: 2.5 nM

## CCN(c1ccc(Cl)c(C)c1)C1CCc2c(CN3CC(C(=O)O)C3)cccc21 (stereo not drawn) [Compound 6-3]
[3]
  IC50: 2.8 nM

## CCN(c1ccc(Cl)c(C)c1)[C@H](C)c1cccc(CN2CC(C(=O)O)C2)c1 [Compound 6-5]
[3]
  IC50: 1.2 nM

## C[C@]12C=CC(=O)C=C1CC[C@@H]1[C@@H]2[C@@H](O)C[C@@]2(C)[C@H]1CC[C@]2(O)C(=O)CO [Prednisclone, reference compound]
[1]; oral twice a day from day 15, 1.5 mg/kg, day 30
  Body weight change ratio (%): −10.4 ± 1.4%
[1]; [4]
  Colon weight (%): 58.3 ± 18.9%
  DAI score (%): 104.4 ± 20.0%

— patent US9718771B2, “Aniline derivative, pharmaceutical composition containing same, and use thereof” (Kissei Pharmaceutical Co., Ltd., priority 2014, dated 2017)
